Reference: patent publication US8952024B2, “Herbicidal pyrimidone derivatives” (E I du Pont de Nemours and Company, priority 2009, dated 2015)

Columns and labels:
Experiment in all cases: Test B pre-/postemergence plant response
Format in all cases: in vivo
[1] = tested on: kochia (Kochia scoparia)
Method in brief: (§1)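 Visually scored on a 0 to 100 scale after 13 to 15 days in greenhouse versus controls. Treatments were preemergence on seeded loam/sand soil and postemergence on 1- to 4-leaf plants.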

[2] = tested on: yellow nutsedge (Cyperus esculentus)
Method in brief: as §1

[3] = tested on: Surinam grass (Brachiaria decumbens)
Method in brief: as §1

[4] = tested on: large crabgrass (Digitaria sanguinalis)
Method in brief: as §1

[5] = tested on: sunflower (common oilseed sunflower, Helianthus annuus); conditions: Preemergence
Method in brief: as §1

[6] = tested on: cocklebur (Xanthium strumarium)
Method in brief: as §1

[7] = tested on: woolly cupgrass (Eriochloa villosa)
Method in brief: as §1

[8] = tested on: nightshade (eastern black nightshade, Solanum ptycanthum); conditions: Preemergence
Method in brief: as §1

[9] = tested on: galium (catchweed bedstraw, Galium aparine); conditions: Preemergence
Method in brief: as §1

[10] = tested on: lambsquarters (Chenopodium album)
Method in brief: as §1

[11] = tested on: wild oat (Avena fatua)
Method in brief: as §1

[12] = 31 g ai/ha, postemergence, scale 0 to 100, 0 is no effect, 100 is complete control
[13] = Postemergence, 62 g ai/ha, scale 0 (no effect) to 100 (complete control), 13 to 15 days
[14] = Postemergence, 125 g ai/ha, visual rating after 13 to 15 days, scale 0 (no effect) to 100 (complete control)
[15] = Postemergence, 250 g ai/ha, scale 0 to 100 (0 no effect, 100 complete control)
[16] = 250 g ai/ha, Preemergence, 0 to 100 scale
[17] = Preemergence, 31 g ai/ha, scale 0 to 100 (0 no effect, 100 complete control)
[18] = Preemergence, 62 g ai/ha, scale 0 to 100, 0 no effect, 100 complete control
[19] = Preemergence, 125 g ai/ha, scale 0 to 100, 0 no effect, 100 complete control
[20] = 31 g ai/ha, scale 0 to 100 (0 no effect, 100 complete control)
[21] = 62 g ai/ha, scale 0 to 100, 0 no effect, 100 complete control
[22] = 125 g ai/ha, scale 0 to 100, 0 no effect, 100 complete control

In the case of `Cc1ccc(Cl)cc1-n1c(-c2ccccc2)ncc(C(=O)C2=C(O)CCCC2=O)c1=O` [Compound 52], the “Plant response rating, Kochia” value [1, 12] is reported as 20, the “Plant response rating, Kochia” value [1, 13] is reported as 25 and the “Plant response rating, Kochia” value [1, 14] is reported as 55. For the same molecule, the “Plant response rating, Kochia” value [1, 15] was 65, the “Plant response rating, Nutsedge, Yellow” value [2, 12] was 20 and the “Plant response rating, Nutsedge, Yellow” value [2, 16] was 90. For the same molecule, the “Plant response rating, Nutsedge, Yellow” value [2, 13] was 25, the “Plant response rating, Nutsedge, Yellow” value [2, 14] was 45 and the “Plant response rating, Nutsedge, Yellow” value [2, 15] was 65. For the same molecule, the “Plant response rating, Nutsedge, Yellow” value [2, 17] was 0, the “Plant response rating, Nutsedge, Yellow” value [2, 18] was 25 and the “Plant response rating, Nutsedge, Yellow” value [2, 19] was 80. The “Plant response rating, Surinam Grass” value [3, 12] was 75, the “Plant response rating, Surinam Grass” value [3, 16] was 98 and the “Plant response rating, Surinam Grass” value [3, 13] was 85. The “Plant response rating, Surinam Grass” value [3, 14] was 90, the “Plant response rating, Surinam Grass” value [3, 15] was 98 and the “Plant response rating, Surinam Grass” value [3, 17] was 10. For the same molecule, the “Plant response rating, Surinam Grass” value [3, 18] was 25, the “Plant response rating, Surinam Grass” value [3, 19] was 95 and the “Plant response rating, Crabgrass, Large” value [4, 12] was 85. The “Plant response rating, Crabgrass, Large” value [4, 16] was 100, the “Plant response rating, Crabgrass, Large” value [4, 13] was 90 and the “Plant response rating, Crabgrass, Large” value [4, 14] was 90. The “Plant response rating, Crabgrass, Large” value [4, 15] was 98, the “Plant response rating, Crabgrass, Large” value [4, 17] was 60 and the “Plant response rating, Crabgrass, Large” value [4, 18] was 98. For the same molecule, the “Plant response rating, Crabgrass, Large” value [4, 19] was 100, the “Plant response rating, Sunflower” value ([5]; 250 g ai/ha, 0 to 100 scale) was 75 and the “Plant response rating, Sunflower” value [5, 20] was 10. For the same molecule, the “Plant response rating, Sunflower” value [5, 21] was 10, the “Plant response rating, Sunflower” value [5, 22] was 70 and the “Plant response rating, Cocklebur” value [6, 12] was 75. For the same molecule, the “Plant response rating, Cocklebur” value [6, 16] was 75, the “Plant response rating, Cocklebur” value [6, 13] was 85 and the “Plant response rating, Cocklebur” value [6, 14] was 85. For the same molecule, the “Plant response rating, Cocklebur” value [6, 15] was 85, the “Plant response rating, Cocklebur” value [6, 17] was 0 and the “Plant response rating, Cocklebur” value [6, 18] was 0. For the same molecule, the “Plant response rating, Cocklebur” value [6, 19] was 10, the “Plant response rating, Cupgrass, Woolly” value [7, 12] was 70 and the “Plant response rating, Cupgrass, Woolly” value [7, 16] was 80. For the same molecule, the “Plant response rating, Cupgrass, Woolly” value [7, 13] was 75, the “Plant response rating, Cupgrass, Woolly” value [7, 14] was 85 and the “Plant response rating, Cupgrass, Woolly” value [7, 15] was 95. For the same molecule, the “Plant response rating, Cupgrass, Woolly” value [7, 17] was 0, the “Plant response rating, Cupgrass, Woolly” value [7, 18] was 10 and the “Plant response rating, Cupgrass, Woolly” value [7, 19] was 65. The “Plant response rating, Nightshade” value ([8]; 250 g ai/ha, 0 to 100 scale) was 100, the “Plant response rating, Nightshade” value [8, 20] was 90 and the “Plant response rating, Nightshade” value [8, 21] was 95. The “Plant response rating, Nightshade” value [8, 22] was 98, the “Plant response rating, Galium” value ([9]; 250 g ai/ha, 0 to 100 scale) was 95 and the “Plant response rating, Galium” value [9, 20] was 0. For the same molecule, the “Plant response rating, Galium” value [9, 21] was 0, the “Plant response rating, Galium” value [9, 22] was 70 and the “Plant response rating, Lambsquarters” value [10, 12] was 85. The “Plant response rating, Lambsquarters” value [10, 16] was 100, the “Plant response rating, Lambsquarters” value [10, 13] was 85 and the “Plant response rating, Lambsquarters” value [10, 14] was 90. For the same molecule, the “Plant response rating, Lambsquarters” value [10, 15] was 95, the “Plant response rating, Lambsquarters” value [10, 17] was 98 and the “Plant response rating, Lambsquarters” value [10, 18] was 100. For the same molecule, the “Plant response rating, Lambsquarters” value [10, 19] was 100, the “Plant response rating, Oat, Wild” value [11, 12] was 90 and the “Plant response rating, Oat, Wild” value [11, 16] was 60. The “Plant response rating, Oat, Wild” value [11, 13] was 90, the “Plant response rating, Oat, Wild” value [11, 14] was 95 and the “Plant response rating, Oat, Wild” value [11, 15] was 95. For the same molecule, the “Plant response rating, Oat, Wild” value [11, 17] was 0, the “Plant response rating, Oat, Wild” value [11, 18] was 5 and the “Plant response rating, Oat, Wild” value [11, 19] was 5.

In the case of `Cc1cccc(-n2c(-c3ccccc3)ncc(C(=O)C3=C(O)CCCC3=O)c2=O)c1F` [Compound 58], the “Plant response rating, Kochia” value [1, 12] is reported as 0, the “Plant response rating, Kochia” value [1, 13] is reported as 10 and the “Plant response rating, Kochia” value [1, 14] is reported as 25. The “Plant response rating, Kochia” value [1, 15] was 25, the “Plant response rating, Nutsedge, Yellow” value [2, 12] was 25 and the “Plant response rating, Nutsedge, Yellow” value [2, 13] was 40. The “Plant response rating, Nutsedge, Yellow” value [2, 14] was 55, the “Plant response rating, Nutsedge, Yellow” value [2, 15] was 75 and the “Plant response rating, Nutsedge, Yellow” value [2, 17] was 20. The “Plant response rating, Nutsedge, Yellow” value [2, 18] was 75, the “Plant response rating, Nutsedge, Yellow” value [2, 19] was 75 and the “Plant response rating, Surinam Grass” value [3, 12] was 70. For the same molecule, the “Plant response rating, Surinam Grass” value [3, 13] was 80, the “Plant response rating, Surinam Grass” value [3, 14] was 95 and the “Plant response rating, Surinam Grass” value [3, 15] was 98. The “Plant response rating, Surinam Grass” value [3, 17] was 40, the “Plant response rating, Surinam Grass” value [3, 18] was 65 and the “Plant response rating, Surinam Grass” value [3, 19] was 85. For the same molecule, the “Plant response rating, Crabgrass, Large” value [4, 12] was 75, the “Plant response rating, Crabgrass, Large” value [4, 16] was 100 and the “Plant response rating, Crabgrass, Large” value [4, 13] was 80. The “Plant response rating, Crabgrass, Large” value [4, 14] was 90, the “Plant response rating, Crabgrass, Large” value [4, 15] was 90 and the “Plant response rating, Crabgrass, Large” value [4, 17] was 95. The “Plant response rating, Crabgrass, Large” value [4, 18] was 98, the “Plant response rating, Crabgrass, Large” value [4, 19] was 98 and the “Plant response rating, Sunflower” value [5, 20] was 0. The “Plant response rating, Sunflower” value [5, 21] was 55, the “Plant response rating, Sunflower” value [5, 22] was 65 and the “Plant response rating, Cocklebur” value [6, 12] was 85. For the same molecule, the “Plant response rating, Cocklebur” value [6, 16] was 65, the “Plant response rating, Cocklebur” value [6, 13] was 85 and the “Plant response rating, Cocklebur” value [6, 14] was 85. For the same molecule, the “Plant response rating, Cocklebur” value [6, 15] was 90, the “Plant response rating, Cocklebur” value [6, 17] was 0 and the “Plant response rating, Cocklebur” value [6, 18] was 0. The “Plant response rating, Cocklebur” value [6, 19] was 10, the “Plant response rating, Cupgrass, Woolly” value [7, 12] was 65 and the “Plant response rating, Cupgrass, Woolly” value [7, 16] was 85. The “Plant response rating, Cupgrass, Woolly” value [7, 13] was 65, the “Plant response rating, Cupgrass, Woolly” value [7, 14] was 70 and the “Plant response rating, Cupgrass, Woolly” value [7, 15] was 95. For the same molecule, the “Plant response rating, Cupgrass, Woolly” value [7, 17] was 10, the “Plant response rating, Cupgrass, Woolly” value [7, 18] was 10 and the “Plant response rating, Cupgrass, Woolly” value [7, 19] was 20. The “Plant response rating, Nightshade” value [8, 20] was 90, the “Plant response rating, Nightshade” value [8, 21] was 98 and the “Plant response rating, Nightshade” value [8, 22] was 98. The “Plant response rating, Galium” value ([9]; 250 g ai/ha, 0 to 100 scale) was 80, the “Plant response rating, Galium” value [9, 20] was 0 and the “Plant response rating, Galium” value [9, 21] was 0. The “Plant response rating, Galium” value [9, 22] was 30, the “Plant response rating, Lambsquarters” value [10, 12] was 95 and the “Plant response rating, Lambsquarters” value [10, 16] was 98. The “Plant response rating, Lambsquarters” value [10, 13] was 95, the “Plant response rating, Lambsquarters” value [10, 14] was 100 and the “Plant response rating, Lambsquarters” value [10, 15] was 100. For the same molecule, the “Plant response rating, Lambsquarters” value [10, 17] was 85, the “Plant response rating, Lambsquarters” value [10, 18] was 98 and the “Plant response rating, Lambsquarters” value [10, 19] was 98. For the same molecule, the “Plant response rating, Oat, Wild” value [11, 12] was 45, the “Plant response rating, Oat, Wild” value [11, 13] was 60 and the “Plant response rating, Oat, Wild” value [11, 14] was 60. For the same molecule, the “Plant response rating, Oat, Wild” value [11, 15] was 85, the “Plant response rating, Oat, Wild” value [11, 17] was 0 and the “Plant response rating, Oat, Wild” value [11, 18] was 0. The “Plant response rating, Oat, Wild” value [11, 19] was 0.
